In the NIST ThermoML archive (doi:10.1021/je0504360):
± gives the expanded uncertainty stated by the source.

Legend:
[1] = Crystal; DTA
[2] = Molar enthalpy of transition or fusion; conditions: Crystal; DSC

- Normal melting temperature [1]: 200.1 ± 1.1 °C
- Molar enthalpy of transition or fusion [2]: 9.53 ± 0.213 kcal/mol
Structure (SMILES): COc1ccc2cc3[n+](cc2c1OC)CCc1cc2c(cc1-3)OCO2.[Cl-]
